Where a name gives a salt, the structure may show the parent alone. Read-outs that look alike come from different tables or passages of the source.
Assays:
[1] = test system: arteria saphena; assay: Isolated smooth muscle: inhibition of K+ depolarization contraction of blood vessel rings in an organ bath, A. saphena; assay type: cell-based; conditions: rabbit, average diameter 0.5-1.0 mm, read-out: IC50, semi-maximum inhibition of the K+ depolarization contraction of blood vessel rings, A. saph.
From the text: (§1) Isolated smooth muscle from rabbits (blood vessel rings, A. basilaris, A. coronaria, A. saphena) are fixed in an organ bath in such a manner that isometric contractions can be measured. The contraction is initiated by a potassium depolarization in tyrode solution.

[2] = test system: isolated papillary muscle of the guinea pig; assay: Isolated papillary muscle: isometric contraction under field stimulation; assay type: cell-based; conditions: for IC50: read-out: IC50 /100 (IC = inhibition concentration, IC100 corresponds to maximum action) (converted)
From the text: However, it cannot be excluded that the dimethyl sulfoxide used as a solvent has contributed to the observed positive inotropic action.

[3] = test system: arteria coronaria; assay: Isolated smooth muscle: inhibition of K+ depolarization contraction of blood vessel rings in an organ bath, A. coronaria; assay type: cell-based; conditions: rabbit, average diameter 0.5-1.0 mm, read-out: IC50, semi-maximum inhibition of the K+ depolarization contraction of blood vessel rings, A. cor.
From the text: as §1

[4] = test system: arteria basilaris; assay: Isolated smooth muscle: inhibition of K+ depolarization contraction of blood vessel rings in an organ bath, A. basilaris; assay type: cell-based; conditions: rabbit, average diameter 0.5-1.0 mm, read-out: IC50, semi-maximum inhibition of the K+ depolarization contraction of blood vessel rings, A. bas.
From the text: as §1

[5] = test system: papillary muscle of the rabbit; conditions: Hof and Scholtysik, cited from earlier work
[6] = Cavia porcellus, papillary muscle of guinea pig, 250/min, 10 msec, 10-20 V field stimulation

Row | IC50 ([1]; Oryctolagus cuniculus) | IC50 [2, 6] | IC50 ([3]; Oryctolagus cuniculus) | IC50 ([4]; Oryctolagus cuniculus) | Compound | other results
1 | 7 nM | 300000 nM | 30 nM | 5 nM | COC(=O)C1=C(C)Nc2ccnc(OC(C)C)c2C1c1ccccc1F (racemic) [Example 1, Methyl (±)-4-(2-fluorophenyl)-1,4-dihydro-5-isopropoxy-2-methyl-1,6-naphthyridine-3-carboxylate] | 
2 | 3.4 nM |  | 0.75 nM | 0.66 nM | COC(=O)C1=C(C)Nc2ccnc(OC(C)C)c2C1c1ccccc1[N+](=O)[O-] (racemic) [Example 1b, methyl (±)-1,4-dihydro-5-isopropoxy-2-methyl-4-(2-nitrophenyl)-1,6-naphthyridine-3-carboxylate] | 
3 | 1000 nM |  | 65 nM | 15 nM | COC(=O)C1=C(C)Nc2ccnc(OC(C)C)c2C1c1ccccc1 (racemic) [Example 1c, methyl (±)-1,4-dihydro-5-isopropoxy-2-methyl-4-phenyl-1,6-naphthyridine-3-carboxylate] | activation at 0.3 µM ([2]; Cavia porcellus, 3×10^-7 mol/liter, read-out: maximum increase of the contractility): 36%; activation at 0.004 µM ([2]; Cavia porcellus, 4×10^-9 mol/liter, read-out: increase of the contractility): 18%
4 |  |  | 3.2 nM | 5.9 nM | COC(=O)C1=C(C)Nc2ccnc(OC(C)C)c2C1c1c(F)cccc1Cl (racemic) [Example 1g, methyl (±)-4-(2-chloro-6-fluorophenyl)-1,4-dihydro-5-isopropoxy-2-methyl-1,6-naphthyridine-3-carboxylate] | 
5 | 1000 nM |  | 15 nM | 3000 nM | CCCOc1nccc2c1C(c1ccccc1C(F)(F)F)C(C(=O)OC)=C(C)N2 (racemic) [Example 1h, methyl (±)-1,4-dihydro-2-methyl-5-propoxy-4-(2-trifluoromethylphenyl)-1,6-naphthyridine-3-carboxylate] | 
6 | 390 nM | 120000 nM | 31 nM | 7.4 nM | CCOC(=O)C1=C(C)Nc2ccnc(OC(C)C)c2C1c1ccccc1C(F)(F)F (racemic) [Example 1l, ethyl (±)-1,4-dihydro-5-isopropoxy-2-methyl-4-(2-trifluoromethylphenyl)-1,6-naphthyridine-3-carboxylate] | 
7 | 90 nM |  | 1000 nM | 250 nM | COC(=O)C1=C(C)Nc2ccnc(OC)c2C1c1ccccc1 (racemic) [Example 2, Methyl (±)-1,4-dihydro-5-methoxy-2-methyl-4-phenyl-1,6-naphthyridine-3-carboxylate] | 
8 | 600 nM |  | 10 nM | 6 nM | CCOC(=O)C1=C(C)Nc2ccnc(OC)c2C1c1ccccc1Cl (racemic) [Example 2a, ethyl (±)-4-(2-chlorophenyl)-1,4-dihydro-5-methoxy-2-methyl-1,6-naphthyridine-3-carboxylate] | 
9 | 600 nM |  | 12 nM | 1.8 nM | CCOC(=O)C1=C(C)Nc2ccnc(OC)c2C1c1cccc([N+](=O)[O-])c1 (racemic) [Example 2b, ethyl (±)-1,4-dihydro-5-methoxy-2-methyl-4-(3-nitrophenyl)-1,6-naphthyridine-3-carboxylate] | 
10 | 2900 nM | 10000 nM | 170 nM | 120 nM | COc1ccc([C@@H]2Sc3ccccc3N(CCN(C)C)C(=O)[C@@H]2OC(C)=O)cc1 [diltiazem, reference compound] | 
11 |  |  |  |  | methyl (±)-4-(2-bromoethyl)-1,4-dihydro-5-isopropoxy-2-methyl-1,6-naphthyridine-3-carboxylate [Example 1a] | IC50 [1]: 8 nM; Δ% = maximum decrease of the contractility ([2]; at IC100, papillary muscle of guinea pig, 250/min, 10 msec, 10-20 V field stimulation): -48%; IC50 ([2]; papillary muscle of guinea pig, 250/min, 10 msec, 10-20 V field stimulation): 300000 nM; IC50 [3]: 2.7 nM; IC50 [4]: 2.4 nM

Row | Compound | IC50 ([1]; Oryctolagus cuniculus) | IC50 [2, 6] | IC50 ([3]; Oryctolagus cuniculus) | IC50 ([4]; Oryctolagus cuniculus) | other results
12 | CCOC(=O)C1=C(C)Nc2ccnc(OC(C)CC)c2C1c1ccccc1C(F)(F)F (racemic) [Example 1p, ethyl (±)-5-sec-butoxy-1,4-dihydro-2-methyl-4-(2-trifluoromethylphenyl)-1,6-napthyridine-3-carboxylate hydrochloride] |  | 10000 nM | 53 nM | 16 nM | 
13 | CCOC(=O)C1=C(C)Nc2ccnc(OCC(C)C)c2C1c1ccccc1C(F)(F)F (racemic) [Example 1q, ethyl (±)-1,4-dihydro-5-isobutoxy-2-methyl-4-(2-trifluoromethylphenyl)-1,6-naphthyridine-3-carboxylate] |  | 10000 nM | 190 nM | 35 nM | 
14 | COC(=O)C1=C(C)NC(C)=C(C(=O)OC)C1c1ccccc1[N+](=O)[O-] [nifedipine, reference compound] | 59 nM |  | 5 nM | 2.7 nM | IC50 ([5]; read-out: IC50 /100 (IC = inhibition concentration, IC100 corresponds to maximum action)): 1000 nM; Δ% = maximum decrease of the contractility [5]: -80%

— patent US4760081A, “1,6-naphthyridine derivatives useful for treating diseases of the blood vessels” (Goedecke Aktiengesellschaft, priority 1984, dated 1988)
